These are literature values, as cited in patent US20100055214A1, “METHOD FOR INCREASING BLOOD FLOW TO MAMMALIAN SKELETAL MUSCLE BY ADMINISTERING L-ARGNINE, CRATAEGUS EXTRACT, ARTICHOKE FLAVONOIDS AND GYMNOSTEMMA PENTAPHYLLUM EXTRACT” (H3 FORMULATIONS LTD., priority 2006, published 2010).

For this series the following is noted: in vivo.

`N=C(N)NCCC[C@H](N)C(=O)O` [L-arginine]: the NO production result is “increase” and the aerobic exercise capacity entry is recorded as “increase aerobic exercise capacity”.
